Laboratory results from patent US7320996B2, “Indolinone protein kinase inhibitors and cyclooxygenase inhibitors for use in combination therapy for the treatment of cancer” (Sugen, Inc, priority 2001, dated 2008).
pIC50: −log10 of the molar value. Several values for one entry are separate records, joined by “and”; a condition that tells them apart may be missing. Equal values may be shown once. Read-outs that look alike come from different tables or passages of the source.

How the values were obtained:
[1] = system: HT-29 human colon cancer cells; assay: HT-29 Model; format: in vivo, nude mice
Description: Mice were injected subcutaneously in the left paw (1×10^6 tumor cells suspended in 30% Matrigel) and tumor volume was evaluated using a phlethysmometer twice a week for 30-60 days. Implantation of human colon cancer cells (HT-29) into nude mice produces tumors that will reach 0.6-2 ml between 30-50 days. […] The data are expressed as the mean+/−SEM. Student's and Mann-Whitney tests were used to assess differences between means using the InStat software package.
The efficacy of both agents were determined by measuring tumor volume.

Lewis Lung tumors = assay: Lewis Lung Model; format: in vivo, mice
Description: Mice were injected subcutaneously in the left paw (1×10^6 tumor cells suspended in 30% Matrigel) and tumor volume was evaluated using a phlethysmometer twice a week for 30-60 days. […] The data are expressed as the mean+/−SEM. Student's and Mann-Whitney tests were used to assess differences between means using the InStat software package. […] Analysis of lung metastasis was done in all the animals by counting metastasis in a stereomicroscope and by histochemical analysis of consecutive lung sections.

A549 cells = assay: cells; conditions: Homo sapiens
HUVECs = assay: VEGF-mediated HUVEC survival (PARP cleavage); format: cell-based, human; conditions: PARP cleavage as readout for apoptosis
Description: In these experiments, cleavage of the caspase 3 substrate poly-ADP-ribosyl polymerase (PARP) was used as a readout for apoptosis.

NCI-H460 tumors = assay: NCI-H460 subcutaneous xenograft
HT29 cells = assay: cells; conditions: Homo sapiens, HT-29
B16-F1 cells = assay: B16-F1 mouse melanoma lung colonization model; format: in vivo, athymic mice; conditions: 80 mg/kg/day oral for 24 days; P <0.001
Description: In addition to supporting the sustained growth of solid primary tumors, angiogenesis is also an essential component supporting the development of disseminated disease due to metastasis from the primary tumor. […] In this model, B16-F1 cells inoculated intravenously via the tail vein of athymic mice colonize the lungs and form tumors. […] .
Briefly, the results shown in Table 8 were obtained using athymic mice that had been inoculated with B16-F1 tumor cells (5×10^5 cells/mouse) via the tail vein. […] . At the end of the treatment period, the mice were sacrificed and their lungs removed and weighed. […] .

Colo205 tumors = assay: Colo205 subcutaneous xenograft
NCI-H460 cells = assay: cells; conditions: Homo sapiens
SF767T cells = assay: cells; conditions: Homo sapiens
c-kit = molecular target: T1, c-kit (Homo sapiens, UniProt P10721); assay: SCF-stimulated c-kit phosphorylation in AML blasts of patients; format: cell-based; conditions: AML blasts from peripheral blood of patients
T1 construct: was determined using MO7E cells that express this receptor; endogenous in cells; host or cells: MO7E
T1 sequence (P10721 26-976): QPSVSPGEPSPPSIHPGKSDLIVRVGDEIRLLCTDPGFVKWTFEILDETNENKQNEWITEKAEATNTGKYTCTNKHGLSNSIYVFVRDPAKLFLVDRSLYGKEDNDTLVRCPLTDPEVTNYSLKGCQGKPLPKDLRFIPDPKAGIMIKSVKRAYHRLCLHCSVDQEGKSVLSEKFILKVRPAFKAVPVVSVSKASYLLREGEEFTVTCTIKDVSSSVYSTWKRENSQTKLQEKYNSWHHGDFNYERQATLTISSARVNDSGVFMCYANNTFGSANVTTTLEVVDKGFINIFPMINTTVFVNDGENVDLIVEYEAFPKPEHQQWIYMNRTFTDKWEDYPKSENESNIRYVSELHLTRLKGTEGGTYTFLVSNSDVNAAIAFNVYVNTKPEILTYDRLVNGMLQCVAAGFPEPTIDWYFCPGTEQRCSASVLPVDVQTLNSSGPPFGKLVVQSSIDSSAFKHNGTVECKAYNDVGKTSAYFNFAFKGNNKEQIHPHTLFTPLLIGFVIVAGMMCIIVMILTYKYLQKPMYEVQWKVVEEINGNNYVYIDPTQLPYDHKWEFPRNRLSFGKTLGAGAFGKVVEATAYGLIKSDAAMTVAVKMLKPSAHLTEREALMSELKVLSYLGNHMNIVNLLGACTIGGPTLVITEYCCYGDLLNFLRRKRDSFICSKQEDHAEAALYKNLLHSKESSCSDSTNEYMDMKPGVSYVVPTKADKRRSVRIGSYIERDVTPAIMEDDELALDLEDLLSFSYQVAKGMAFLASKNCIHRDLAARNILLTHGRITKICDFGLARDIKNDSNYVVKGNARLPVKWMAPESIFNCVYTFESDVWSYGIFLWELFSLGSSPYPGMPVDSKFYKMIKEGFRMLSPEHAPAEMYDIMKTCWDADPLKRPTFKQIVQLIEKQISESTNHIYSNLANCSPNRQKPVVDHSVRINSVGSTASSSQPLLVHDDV

SF763T tumors = assay: SF763T subcutaneous xenograft; format: in vivo, athymic mice
EGFR = EGFR (Homo sapiens, UniProt P00533); assay: cell EGF assay; format: cell-based
EGFR, sequence (P00533 25-1210, species assumed): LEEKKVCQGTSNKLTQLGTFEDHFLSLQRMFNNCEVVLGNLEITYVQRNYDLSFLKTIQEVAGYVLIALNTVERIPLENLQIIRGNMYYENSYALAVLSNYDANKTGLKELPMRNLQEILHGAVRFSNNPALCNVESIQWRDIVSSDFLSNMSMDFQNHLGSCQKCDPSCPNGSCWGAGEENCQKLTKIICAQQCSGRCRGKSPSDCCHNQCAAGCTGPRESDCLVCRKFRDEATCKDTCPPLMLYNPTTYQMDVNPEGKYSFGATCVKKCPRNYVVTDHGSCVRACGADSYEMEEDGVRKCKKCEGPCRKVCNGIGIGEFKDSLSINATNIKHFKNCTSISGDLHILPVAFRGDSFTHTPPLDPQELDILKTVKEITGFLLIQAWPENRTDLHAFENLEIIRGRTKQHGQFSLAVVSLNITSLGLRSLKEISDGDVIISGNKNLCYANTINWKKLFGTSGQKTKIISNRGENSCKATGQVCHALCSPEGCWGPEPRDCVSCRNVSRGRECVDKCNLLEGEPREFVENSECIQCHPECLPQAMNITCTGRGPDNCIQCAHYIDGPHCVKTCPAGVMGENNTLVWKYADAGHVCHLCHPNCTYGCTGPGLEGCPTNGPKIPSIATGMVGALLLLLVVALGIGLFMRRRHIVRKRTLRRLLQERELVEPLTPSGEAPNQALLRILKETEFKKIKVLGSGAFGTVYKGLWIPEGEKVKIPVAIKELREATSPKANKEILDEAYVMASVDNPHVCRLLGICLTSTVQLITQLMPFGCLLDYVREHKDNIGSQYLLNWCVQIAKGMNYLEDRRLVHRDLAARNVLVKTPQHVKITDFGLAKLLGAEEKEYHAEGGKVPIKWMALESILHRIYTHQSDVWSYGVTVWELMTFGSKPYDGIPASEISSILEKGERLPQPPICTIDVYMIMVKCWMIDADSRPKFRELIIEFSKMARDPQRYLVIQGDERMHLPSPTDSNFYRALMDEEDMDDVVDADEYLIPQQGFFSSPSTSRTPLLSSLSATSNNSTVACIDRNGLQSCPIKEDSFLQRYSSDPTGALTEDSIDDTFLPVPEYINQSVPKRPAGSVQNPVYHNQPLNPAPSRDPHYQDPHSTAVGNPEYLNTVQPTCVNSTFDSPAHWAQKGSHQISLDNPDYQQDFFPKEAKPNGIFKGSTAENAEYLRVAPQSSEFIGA
Description: Several of the assays described herein are performed in an ELISA (Enzyme-Linked Immunosorbent […]) format (Voller, et al, 1980, “Enzyme-Linked Immunosorbent Assay,” Manual of Clinical Immunology, 2d ed., Rose and Friedman, Am. Soc. Of Microbiology, Washington, D.C., pp. 359-371). The general procedure is as follows: a compound of Formula (I) is introduced to cells expressing the test kinase, either naturally or recombinantly, for a selected period of time after which, if the test kinase is a receptor, a ligand known to activate the receptor is added. The cells are lysed and the lysate is transferred to the wells of an ELISA plate previously coated with a specific antibody recognizing the substrate of the enzymatic phosphorylation reaction. Non-substrate components of the cell lysate are washed away and the amount of phosphorylation on the substrate is detected with an antibody specifically recognizing phosphotyrosine compared with control cells that were not contacted with a test compound.
Specifically, the results shown indicate the concentration of a test compound needed to cause a 50% reduction of the activity of the target PTK. Bioassays which have been or can be used to evaluate compounds are described in detail below.

EGFR (A431 cell lysate) = molecular target: T2, EGFR (A431 cell lysate) (Homo sapiens, UniProt P00533); assay: EGFR bioassay, ELISA; format: biochemical; conditions: read-out: bio EGF IC50
T2 construct: A431 cell lysate (SUGEN, Inc.); host or cells: A431
T2 sequence (P00533 25-1210): as the sequence (P00533 25-1210, species assumed) above
Description: This assay is used to the in vitro kinase activity of FGF1-R in an ELISA assay.
Corning 96-well Elisa plates. • 2. SUMOL1 monoclonal anti-EGFR antibody (SUGEN, Inc.). • 3. PBS • 4. TBST Buffer • 5. Blocking Buffer: for 100 ml, mix 5.0 g Carnation Instant Non-fat Milk® with 100 ml of PBS. • 6. A431 cell lysate (SUGEN, Inc.). • 7. TBS Buffer: • 8.
bring to 1 liter total volume with dH2O. • 9. […] This reagent should be made up immediately prior to use and kept on ice. • 10. 1.0 mM MnCl2. • 11. […] Prepare just prior to use, keep on ice. • 12. NUNC 96-well V bottom polypropylene plates. • 13. EDTA. • 14. Rabbit polyclonal anti-phosphotyrosine serum (SUGEN, Inc.). • 15. Goat anti-rabbit IgG peroxidase conjugate (Biosource Cat. No. ALI0404). • 16. ABTS. • 17. 30% Hydrogen peroxide. • 18. ABTS/H2O2 • 19. 0.2 M HCl. Procedure: • 1. Coat Corning 96 well ELISA plates with 0.5 μg SUMO1 in 100 μl PBS per well, store overnight at 4° C. • 2. Remove unbound SUMO1 from wells by inverting plate to remove liquid. Wash 1×with dH2O. Pat the plate on a paper towel to remove excess liquid. • 3. Add 150 μl of Blocking Buffer to each well. Incubate, with shaking, for 30 min. at room temperature. • 4. Wash plate 3×with deionized water, then once with TBST. Pat plate on a paper towel to remove excess liquid and bubbles. • 5. Dilute lysate in PBS (7 μg lysate/100 μl PBS). • 6. Add 100 μl of diluted lysate to each well. Shake at room temperature for 1 hr. • 7. Wash plates as in 4, above. • 8. Add 120 μl TBS to ELISA plate containing captured EGFR. • 9. […] Add 13.5 μl diluted test compound to ELISA plate. To control wells, add 13.5 μl TBS in 10% DMSO. • 11. Incubate, with shaking, for 30 minutes at room temperature. • 12. Add 15 μl phosphorylation mix to all wells except negative control well. Final well volume should be approximately 150 μl with 3 μM ATP/5 mM MnCl2 final concentration in each well. Incubate with shaking for 5 minutes. • 13. Stop reaction by adding 16.5 μl of EDTA solution while shaking. Shake for additional 1 min. • 14. Wash 4×with deionized water, 2×with TBST. • 15. Add 100 μl anti-phosphotyrosine (1:3000 dilution in TBST) per well. Incubate, with shaking, for 30-45 min. at room temperature. • 16. Wash as in 4, above. • 17. […] Incubate with shaking for 30 min. at room temperature. • 18. Wash as in 4, above. • 19. Add 100 μl of ABTS/H2O2 solution to each well. • 20. Incubate 5 to 10 minutes with shaking. Remove any bubbles. • 21. If necessary, stop reaction by adding 100 μl 0.2 M HCl per well. • 22.

[2] = molecular target: T3, HER-2 kinase (EGFr/HER-2 chimera/3T3-C7 cell line) (Homo sapiens, UniProt P04626); assay: Cellular HER-2 kinase assay, whole-cell ELISA; format: cell-based; conditions: read-out: Her2 Kinase IC50
T3 construct: fused on or other part: EGFR extracellular part, stimulated by EGF and captured by the anti-EGFR antibody SUMO1; P00533 (Epidermal growth factor receptor)
T3 sequence (P04626 720-987 limits assumed, change not shown): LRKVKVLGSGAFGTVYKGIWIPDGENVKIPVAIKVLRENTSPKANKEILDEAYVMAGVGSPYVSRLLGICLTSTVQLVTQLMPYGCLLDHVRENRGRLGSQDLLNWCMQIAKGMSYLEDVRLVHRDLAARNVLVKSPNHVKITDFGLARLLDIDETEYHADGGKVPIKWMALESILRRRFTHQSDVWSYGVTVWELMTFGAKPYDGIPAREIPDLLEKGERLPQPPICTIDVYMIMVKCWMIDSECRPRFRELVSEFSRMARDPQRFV
Description: This assay is used to measure HER-2 kinase activity in whole cells in an ELISA format.
Fetal Bovine Serum (FBS, GIBCO Catalog #16000-044), heat inactivated in a water bath for 30 min. at 56° C. • 3. […] PBS. • 9. […] Corning 96-well ELISA Plates. • 12. NUNC 96-well V bottom polypropylene plates. • 13. […] SUMO 1: monoclonal anti-EGFR antibody (SUGEN, Inc.). • 15. TBST Buffer. • 16. Blocking Buffer: 5% Carnation Instant Milk® in PBS. • 17. […] Suspend powder in 100 uL of 10 mM HCl. Add 100 uL 10 mM NaOH. Add 800 uL PBS and transfer to an Eppendorf tube, store at −20° C. until ready to use. • 18. […] EDTA. • 20. Na3VO4. […] Boil in microwave for one minute (solution becomes clear). • Cool to room temperature. Adjust pH to 10. Repeat heating/cooling cycle until pH remains at 10. • 21. 200 mM Na4P2O7. • 22. Rabbit polyclonal antiserum specific for phosphotyrosine (anti-Ptyr antibody, SUGEN, Inc.). • 23. Affinity purified antiserum, goat anti-rabbit IgG antibody, peroxidase conjugate (Biosource Cat #ALI0404). • 24. ABTS Solution. • 25. 30% Hydrogen peroxide solution. • 26. ABTS/H2O2. • 27. 0.2 M HCl. Procedure: • 1. Coat Corning 96 well ELISA plates with SUMO1 at 1.0 ug per well in PBS, 100 ul final volume/well. Store overnight at 4° C. • 2. On day of use, remove coating buffer and wash plate 3 times with dH2O and once with TBST buffer. All washes in this assay should be done in this manner, unless otherwise specified. • 3. Add 100 ul of Blocking Buffer to each well. Incubate plate, with shaking, for 30 min. at room temperature. Just prior to use, wash plate. • 4. Use EGFr/HER-2 chimera/3T3-C7 cell line for this assay. • 5. Choose dishes having 80-90% confluence. Collect cells by trypsinization and centrifuge at 1000 rpm at room temperature for 5 min. • 6. Resuspend cells in starve medium and count with trypan blue. Viability above 90% is required. Seed cells in starve medium at a density of 2,500 cells per well, 90 ul per well, in a 96 well microtiter plate. Incubate seeded cells overnight at 37° under 5% CO2. • 7. Start the assay two days after seeding. • 8. Test compounds are dissolved in 4% DMSO. Samples are then further diluted directly on plates with starve-DMEM. Typically, this dilution will be 1:10 or greater. […] Incubate at 37° C. for 10 min. • 13. Remove test compound, EGF, and DMEM. Wash cells once with PBS. • 14. Transfer HNTG* to cells, 100 ul per well. Place on ice for 5 minutes. • Meanwhile, remove blocking buffer from ELISA plate and wash. • 15. Scrape cells from plate with a micropipettor and homogenize cell material by repeatedly aspirating and dispensing the HNTG* lysis buffer. Transfer lysate to a coated, blocked, washed ELISA plate. Or, use a Costar transfer cartridge to transfer lysate to the plate. • 16. Incubate, with shaking, at room temperature for 1 hr. • 17. Remove lysate, wash. Transfer freshly diluted anti-Ptyr antibody (1:3000 in TBST) to ELISA plate, 100 ul per well. • 18. Incubate, with shaking, at room temperature, for 30 min. • 19. Remove anti-Ptyr antibody, wash. Transfer freshly diluted BIOSOURCE antibody to ELISA plate (1:8000 in TBST, 100 ul per well). • 20. Incubate, with shaking, at room temperature for 30 min. • 21. Remove BIOSOURCE antibody, wash. Transfer freshly prepared ABTS/H2O2 solution to ELISA plate, 100 ul per well. • 22. […] Remove any bubbles. • 23. Stop reaction with the addition of 100 ul of 0.2M HCl per well. • 24.

[3] = molecular target: T4, PDGFR-β (NIH 3T3 cell lysate) (Homo sapiens, UniProt P09619); assay: PDGFR bioassay, ELISA; format: biochemical; conditions: read-out: bio PDGF IC50
T4 construct: host or cells: NIH 3T3
T4 sequence (P09619 33-1106): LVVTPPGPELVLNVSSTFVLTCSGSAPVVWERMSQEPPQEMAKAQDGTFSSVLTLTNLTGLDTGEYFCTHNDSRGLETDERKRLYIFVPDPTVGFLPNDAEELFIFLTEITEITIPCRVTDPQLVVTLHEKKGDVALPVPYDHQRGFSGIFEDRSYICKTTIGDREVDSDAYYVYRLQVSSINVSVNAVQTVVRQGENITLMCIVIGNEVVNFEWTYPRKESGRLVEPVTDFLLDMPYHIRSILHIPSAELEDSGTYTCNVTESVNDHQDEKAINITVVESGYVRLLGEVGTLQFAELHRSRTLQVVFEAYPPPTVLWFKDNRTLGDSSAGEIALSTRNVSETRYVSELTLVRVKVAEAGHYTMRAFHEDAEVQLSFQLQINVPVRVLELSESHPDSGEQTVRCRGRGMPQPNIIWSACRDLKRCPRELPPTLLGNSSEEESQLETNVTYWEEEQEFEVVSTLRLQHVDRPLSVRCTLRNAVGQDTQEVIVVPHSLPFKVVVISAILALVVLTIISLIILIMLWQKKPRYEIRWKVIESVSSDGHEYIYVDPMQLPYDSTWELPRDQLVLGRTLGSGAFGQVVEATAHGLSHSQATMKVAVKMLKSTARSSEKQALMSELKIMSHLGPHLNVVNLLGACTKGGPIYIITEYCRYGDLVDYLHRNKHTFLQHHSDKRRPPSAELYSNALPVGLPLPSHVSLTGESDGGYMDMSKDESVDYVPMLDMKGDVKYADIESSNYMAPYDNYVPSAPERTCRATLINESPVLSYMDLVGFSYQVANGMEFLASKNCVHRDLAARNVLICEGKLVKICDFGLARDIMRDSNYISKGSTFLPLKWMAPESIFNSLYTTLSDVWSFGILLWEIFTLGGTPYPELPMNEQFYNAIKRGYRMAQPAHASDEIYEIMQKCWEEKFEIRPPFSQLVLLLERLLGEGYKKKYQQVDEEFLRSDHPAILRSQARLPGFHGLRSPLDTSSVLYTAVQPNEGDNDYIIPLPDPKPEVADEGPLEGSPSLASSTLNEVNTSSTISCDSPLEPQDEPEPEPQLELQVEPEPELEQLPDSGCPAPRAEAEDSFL
Description: Corning 96-well Elisa plates • 2. 28D4C10 monoclonal anti-PDGFR antibody (SUGEN, Inc.). • 3. PBS. • 4. TBST Buffer. • 5. Blocking Buffer (same as for EGFR bioassay). • 6. PDGFR-β expressing NIH 3T3 cell lysate (SUGEN, Inc.). • 7. TBS Buffer. • 8. TBS+10% DMSO. • 9. ATP. • 10. MnCl2. • 11. Kinase buffer phosphorylation mix: for 10 ml, mix 250 μl 1M TRIS, 200 μl 5M NaCl, 100 μl 1M MnCl2 and 50 μl 100 mM Triton X-100 in enough dH2O to make 10 ml. • 12. NUNC 96-well V bottom polypropylene plates. • 13. EDTA. • 14. Rabbit polyclonal anti-phosphotyrosine serum (SUGEN, Inc.). • 15. Goat anti-rabbit IgG peroxidase conjugate (Biosource Cat. No. ALI0404). • 16. ABTS. • 17. Hydrogen peroxide, 30% solution. • 18. ABTS/H2O2. • 19. 0.2 M HCl. Procedure: • 1. Coat Corning 96 well ELISA plates with 0.5 μg 28D4C10 in 100 μl PBS per well, store overnight at 4° C. • 2. Remove unbound 28D4C10 from wells by inverting plate to remove liquid. • Wash 1×with dH2O. Pat the plate on a paper towel to remove excess liquid. • 3. Add 150 μl of Blocking Buffer to each well. Incubate for 30 min. at room temperature with shaking. • 4. Wash plate 3×with deionized water, then once with TBST. Pat plate on a paper towel to remove excess liquid and bubbles. • 5. Dilute lysate in HNTG (10 μg lysate/100 μl HNTG). • 6. Add 100 μl of diluted lysate to each well. Shake at room temperature for 60 min. • 7. Wash plates as described in Step 4. • 8. Add 80 μl working kinase buffer mix to ELISA plate containing captured PDGFR. • 9. […] Add 10 μl diluted test compound to ELISA plate. To control wells, add 10 μl TBS+10% DMSO. Incubate with shaking for 30 minutes at room temperature. • 11. Add 10 μl ATP directly to all wells except negative control well (final well volume should be approximately 100 μl with 20 μM ATP in each well.) Incubate 30 minutes with shaking. • 12. Stop reaction by adding 10 μl of EDTA solution to each well. • 13. Wash 4×with deionized water, twice with TBST. • 14. Add 100 μl anti-phosphotyrosine (1:3000 dilution in TBST) per well. Incubate with shaking for 30-45 min. at room temperature. • 15. Wash as in Step 4. • 16. […] Incubate with shaking for 30 min. at room temperature. • 17. Wash as in Step 4. • 18. Add 100 μl of ABTS/H2O2 solution to each well. • 19. Incubate 10 to 30 minutes with shaking. Remove any bubbles. • 20. If necessary stop reaction with the addition of 100 μl 0.2 M HCl per well. • 21.

[4] = system: HT-29 human colon cancer cells; assay: HT-29 Model; format: in vivo, nude mice; conditions: HT-29 assay A

Structure (SMILES): Cc1ccc(-c2cc(C(F)(F)F)nn2-c2ccc(S(N)(=O)=O)cc2)cc1 [Celecoxib]
- tumor Volume ([1]; 10 ppm in the diet from day 10, day 14): 0.124 mL
- tumor Volume ([1]; 10 ppm in the diet from day 10, day 22): 0.25 mL
- tumor Volume ([1]; 10 ppm in the diet from day 10, day 28): 0.36 mL
- tumor Volume ([1]; 10 ppm in the diet from day 10, day 35): 0.57 mL
- tumor Volume ([1]; 10 ppm in the diet from day 10, day 42): 0.89 mL
- tumor Volume ([1]; 10 ppm in the diet from day 10, day 50): 1.49 mL
- tumor Volume ([1]; 40 ppm in the diet from day 10, day 14): 0.125 mL
- tumor Volume ([1]; 40 ppm in the diet from day 10, day 22): 0.19 mL
- tumor Volume ([1]; 40 ppm in the diet from day 10, day 28): 0.27 mL
- tumor Volume ([1]; 40 ppm in the diet from day 10, day 35): 0.4 mL
- tumor Volume ([1]; 40 ppm in the diet from day 10, day 42): 0.68 mL
- tumor Volume ([1]; 40 ppm in the diet from day 10, day 50): 1.04 mL
- tumor Volume ([1]; 160 ppm in the diet from day 10, day 14): 0.120 mL
- tumor Volume ([1]; 160 ppm in the diet from day 10, day 22): 0.14 mL
- tumor Volume ([1]; 160 ppm in the diet from day 10, day 28): 0.21 mL
- tumor Volume ([1]; 160 ppm in the diet from day 10, day 35): 0.3 mL
- tumor Volume ([1]; 160 ppm in the diet from day 10, day 42): 0.49 mL
- tumor Volume ([1]; 160 ppm in the diet from day 10, day 50): 0.8 mL
- effect in combination with a cytotoxic agent (cyclophosphamide) ([1]; celecoxib in the diet, cytoxin i.p. 50 mg/kg on days 5, 7 and 9): positive benefit
- effect on lung metastasis (Lewis Lung tumors; 160 ppm in the diet): did not affect
- reduction of surface metastasis (Lewis Lung tumors; 480-3200 ppm in the diet): more than 50%
- size of the metastasic lesions in the lung (Lewis Lung tumors; histopathological analysis): dose-dependently reduced

Structure (SMILES): CCN(CC)CCNC(=O)c1c(C)[nH]c(/C=C2\C(=O)Nc3ccc(F)cc32)c1C [Compound 80]
- pIC50 (A549 cells): 5.02
- effect on VEGF-mediated HUVEC survival (HUVECs): inhibited VEGF-mediated HUVEC survival in a dose-dependent manner
- tumor response to treatment (NCI-H460 tumors; 80 mg/kg/day oral): arrested or greatly slowed
- % Inhibition (NCI-H460 tumors; initial tumor volume 300 mm^3, 80 mg/kg once daily oral, day 54, P 0.003): 61 (54) %
- pIC50 (HT29 cells): 5.00
- % Inhibition (lung weight) (B16-F1 cells): 50%
- tumor response to treatment (A431 tumors; 80 mg/kg/day oral): regressed
- efficacy against established A431 tumors versus 80 mg/kg/day dose (A431 tumors; 160 mg/kg/day, preliminary experiments): not more efficacious
- complete regression of the tumors (A431 tumors; initial 100 mm^3, 80 mg/kg/day for 21 days): six of the eight animals
- % Inhibition of tumor growth (A431 tumors; initial tumor volume 100 mm^3, 10 mg/kg/day oral, day 40, P 0.059): 61 (40) %
- % Inhibition of tumor growth (A431 tumors; initial tumor volume 100 mm^3, 40 mg/kg/day oral, day 40, P 0.015): 75 (40) %
- % Inhibition of tumor growth (A431 tumors; initial tumor volume 100 mm^3, 80 mg/kg/day oral, day 40, P 0.002): 93 (40) %
- % Inhibition of tumor growth (A431 tumors; initial tumor volume 400 mm^3, 20 mg/kg/day oral, day 36, P 0.130): 51 (36) %
- % Inhibition of tumor growth (A431 tumors; initial tumor volume 400 mm^3, 40 mg/kg/day oral, day 36, P 0.003): 74% and 74 (36) %
- % Inhibition of tumor growth (A431 tumors; initial tumor volume 400 mm^3, 80 mg/kg/day oral, day 36, P 0.001): 84% and 84 (36) %
- tumor regrowth after end of treatment (A431 tumors; the six animals with complete regression): did not regrow during a 110-day observation period
- response of regrown tumors to a second round of treatment (A431 tumors; two animals with tumors regrown to 2000-3000 mm^3): regressed
- % Inhibition (Colo205 tumors; 40 mg/kg daily oral, tumors 400 mm^3 at start, P 0.028): 84%
- % Inhibition (Colo205 tumors; 40 mg/kg twice weekly oral, tumors 400 mm^3 at start, NS): 36%
- % Inhibition (Colo205 tumors; 80 mg/kg daily oral, tumors 400 mm^3 at start, P 0.039): 91%
- % Inhibition (Colo205 tumors; 80 mg/kg once weekly oral, tumors 400 mm^3 at start, NS): 0%
- % Inhibition (Colo205 tumors; 80 mg/kg twice weekly oral, tumors 400 mm^3 at start, NS): 19%
- tumor response to treatment (Colo205 tumors; 80 mg/kg/day oral): regressed
- % Inhibition (Colo205 tumors; 160 mg/kg once weekly oral, tumors 400 mm^3 at start, NS): 17%
- % Inhibition (Colo205 tumors; 160 mg/kg twice weekly oral, tumors 400 mm^3 at start, P 0.085): 52%
- % Inhibition (Colo205 tumors; initial tumor volume 370 mm^3, 80 mg/kg once daily oral, day 54, P 0.028): 77 (54) %
- pIC50 (NCI-H460 cells): 5.05
- pIC50 (SF767T cells): 5.10
- SCF-stimulated c-kit phosphorylation (c-kit): inhibited
- tumor response to treatment (SF763T tumors; 80 mg/kg/day oral): arrested or greatly slowed
- % Inhibition (SF763T tumors; initial tumor volume 550 mm^3, 80 mg/kg once daily oral, day 30, P 0.001): 53 (30) %
- PDGFRβ tyrosine phosphorylation in established tumors (SF763T tumors; oral administration): strongly inhibited
- levels of phosphorylated (activated) phospholipase C gamma (PLC-γ) in tumors (SF763T tumors; oral administration): reduced

Structure (SMILES): Cc1[nH]c(/C=C2\C(=O)Nc3ccc(-c4ccccc4)cc32)c(C)c1C(=O)NCCCn1ccnc1 [Example 58, 2,4-Dimethyl-5-(2-oxo-5-phenyl-1,2-dihydroindol-3-ylidenemethyl)-1H-pyrrole-3-carboxylic Acid (3-imidazol-1-ylpropyl)amide]
- pIC50 (EGFR): < 4.00
- pIC50 (EGFR (A431 cell lysate)): < 4.00
- pIC50 [2]: < 4.00

Structure (SMILES): CCN(CC)CCNC(=O)c1c(C)[nH]c(/C=C2\C(=O)Nc3cc(-c4cc(Cl)cc(Cl)c4)ccc32)c1C [Example 62, 5-[6-(3,5-Dichlorophenyl)-2-oxo-1,2-dihydroindol-3-ylidenemethyl]-2,4-dimethyl-1H-pyrrole-3-carboxylic Acid (2-diethylaminoethyl)amide]
- pIC50 (EGFR): < 4.00
- pIC50 (EGFR (A431 cell lysate)): < 4.00
- pIC50 [2]: < 4.00

Structure (SMILES): CCN(CC)CCNC(=O)c1c(C)[nH]c(/C=C2\C(=O)Nc3cc(-c4cccnc4)ccc32)c1C [Example 63, 2,4-Dimethyl-5-(2-oxo-6-pyridin-3-yl-1,2-dihydroindol-3-ylidenemethyl)-1H-pyrrole-3-carboxylic Acid (2-diethylaminoethyl)amide]
- pIC50 (EGFR): < 4.00
- pIC50 [3]: > 6.11
- pIC50 [2]: < 4.00

Structure (SMILES): Cc1cc(C)c(/C=C2\C(=O)N(CN3CCN(C)CC3)c3ccccc32)[nH]1 [Example 205, (3Z)-3-[(3,5-dimethyl-1H-pyrrol-2-yl)-methylidene]-1-[1-(4-methylpiperazinyl)methyl]-dihydro-2H-indol-2-one]
- melting point: 160 to 164 °C

Structure (SMILES): Cc1cc(C)c(/C=C2\C(=O)N(CN3CCCC3)c3ccccc32)[nH]1 [Example 206, (3Z)-3-[(3,5-dimethyl-1H-pyrrol-2-yl)-methylidene]-1-(1-pyrrolidinylmethyl)-1,3-dihydro-2H-indol-2-one]
- melting point: 129 to 132 °C

Structure (SMILES): NS(=O)(=O)c1ccc(-n2nc(C(F)(F)F)cc2-c2ccc(Cl)cc2)cc1 [SC-58236, 4-[5-(4-chorophenyl)-3-(trifluoromethyl)-1H-pyrazole-1-yl]benzenesulfonamide]
- reduction of tumor volume ([1]; HT-29 assay A): 89%
- formation of lung metastasis [4]: completely inhibited

Structure (SMILES): COc1ccc2c(c1)c(CC(=O)O)c(C)n2C(=O)c1ccc(Cl)cc1 [indomethacin]
- inhibition of tumor formation ([1]; 2 mg/kg/day in the drinking water, near the maximum tolerated dose): 77%
- formation of lung metastasis [4]: ineffective
